Data from article PMC3509626, “Antifungal Activity of (KW)n or (RW)n Peptide against Fusarium solani and Fusarium oxysporum” (International Journal of Molecular Sciences, 2012).
Read-outs that look alike come from different tables or passages of the source. Ends that are not written are not given here.

What was measured:
Type in all cases: cell-based
[1] = system: Fusarium oxysporum (KCTC 6076); conditions: KCTC 6076, 3 h
Experimental: (§1) Rink amide 4-methylbenzhydrylamine resin, fluoren-9-ylmethoxycarbonyl (Fmoc) amino acids, and other reagents for peptide synthesis were purchased from Calibiochem-Novabiochem (La Jolla, CA, USA). For the quantitative antifungal assay and fungicidal activity assay, the following fungal strains were obtained from the Korea Collection for Type Cultures (KCTC): F. solani (KCTC 6326) and F. oxysporum (KCTC 6076). Fungal cells were grown on PDA (potato dextrose agar) plate and subcultured for 2–3 weeks.
(§2) The spore suspension at a concentration of 5 × 10^4 spores/mL (80 μL) was transferred to a 96-well microtiter plate along with 20 μL of (KW)n or (RW)n peptides (n = 3, 4, and 5), melittin, or media to give final peptide concentrations of 4–32 μM. Plates were incubated for 3 h before the addition of 10 μL of 3-(4,5-dimethylthiazol-2-yl)-2,5-diphenyltetrazolium bromide (MTT; 5 mg/mL; Sigma). Plates were then incubated again for 16 h at room temperature, followed by the addition of 100 μL of MTT solvent (0.1 N HCl in anhydrous isopropyl alcohol). Presence of MTT/formazan was monitored spectrophotometrically by measuring the absorbance at 570 nm and then subtracting the background absorbance at 690 nm using a Versa-Max microplate Elisa reader (Molecular Devices, Sunnyvale, CA, USA). Each measurement was conducted in triplicate.

[2] = system: Fusarium solani (KCTC 6326); conditions: KCTC 6326, 3 h
Experimental: as §1, §2

[3] = system: Fusarium oxysporum (KCTC 6076); conditions: F. oxysporum, peptide at 64 μM, 24 h, 25 °C
Experimental: as §1
(§3) Fungal fragments, precultured in mycelial growth medium, were placed in the center of PDA plates, after which the cultures were incubated for 96 h at 25 °C in the dark. After incubation, spores were isolated from cultures growing in half-strength PDA. Spore concentrations were then adjusted to 5 × 10^4 spores/mL in half-strength PDA, after which 80 μL was added to the wells of sterile 96-well flat-bottomed microtiter plates along with 20 μL of peptide or media to give final concentrations of 1–64 μM. Several wells were kept untreated as a control to monitor fungal growth. Plates were incubated in the dark at 25 °C for 24 h before hyphal growth was determined by measuring optical density at 595 nm using a microtiter plate Elisa reader (Molecular Devices, Sunnyvale, CA, USA). Each test was performed in triplicate. Percentages of inhibition were then calculated (Figure 1) (0% inhibition indicates growth equal to control sample (only media)). The lowest concentration of peptide inhibiting fungal growth was monitored microscopically with an inverted light microscope (IX71, Olympus, Tokyo, Japan).

[4] = system: Fusarium solani (KCTC 6326); conditions: for growth inhibition (conidial germination and hyphal growth): F. solani, peptide at 64 μM, 24 h, 25 °C; for concentration at which antifungal effects were exhibited (below MIC): KCTC 6326, 24 h
Experimental: as §1, §3

| Compound | cells killed [1] | cells killed [2] | growth inhibition (conidial germination and hyphal growth) [3] | growth inhibition (conidial germination and hyphal growth) [4] | concentration at which antifungal effects were exhibited (below MIC) [4] | also measured |
| --- | --- | --- | --- | --- | --- | --- |
| N=C(N)NCCC[C@H](NC(=O)[C@H](Cc1c[nH]c2ccccc12)NC(=O)[C@H](CCCNC(=N)N)NC(=O)[C@H](Cc1c[nH]c2ccccc12)NC(=O)[C@H](CCCNC(=N)N)NC(=O)[C@H](Cc1c[nH]c2ccccc12)NC(=O)[C@H](CCCNC(=N)N)NC(=O)[C@H](Cc1c[nH]c2ccccc12)NC(=O)[C@@H](N)CCCNC(=N)N)C(=O)N[C@@H](Cc1c[nH]c2ccccc12)C(N)=O [(RW)5, RWRWRWRWRW-NH2] | 79% | 75% | – | – | – | – |
| KWKW-NH2 [(KW)2, tetrameric Lys-Trp repeat peptide amide] | – | – | did not inhibit growth | did not inhibit growth | – | growth inhibition (conidial germination and hyphal growth) ([3]; listed as (KW)2-NH2): non-inhibition; growth inhibition (conidial germination and hyphal growth) ([4]; listed as (KW)2-NH2): non-inhibition |
| KWKWKWKW-NH2 [(KW)4, KWKWKWKW-NH2] | 74% | 68% | – | – | 4 µM | – |
| KWKWKWKWKW-NH2 [(KW)5, KWKWKWKWKW-NH2] | 76% | 72% | – | – | – | – |
| RWRW-NH2 [(RW)2, tetrameric Arg-Trp repeat peptide amide] | – | – | did not inhibit growth | did not inhibit growth | – | growth inhibition (conidial germination and hyphal growth) ([3]; listed as (RW)2-NH2): non-inhibition; growth inhibition (conidial germination and hyphal growth) ([4]; listed as (RW)2-NH2): non-inhibition |
| RWRWRWRW-NH2 [(RW)4, RWRWRWRW-NH2] | 76% | 69% | – | – | 4 µM | – |
